Measured values reported in the supplement of paper PMC8612539.
≈ marks a conversion by molar mass, not a printed value.

How the values were obtained:
Mannheimia haemolytica = assay: minimum inhibitory concentration (MIC)
Protocol: (§1)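 Broth microdilution MIC (Sensititre BOPO7F bovine plate, CLSI methods) of 19 antimicrobials against field isolates of P. multocida, M. haemolytica, H. somni (deep nasopharyngeal swabs) and E. coli, Enterococcus spp. (rectal swabs) from weaned dairy heifers. Incubation 16-24 h at 35 C. MIC is the lowest concentration preventing visible growth. Values with <= or > lie at the tested range limits. Trimethoprim-sulfamethoxazole is given as the trimethoprim component of a 1:19 mixture.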

Enterococcus spp. = assay: minimum inhibitory concentration (MIC)
Protocol: as §1

CN1C[C@@H]2C[C@H]1CN2c1cc2c(cc1F)c(=O)c(C(=O)O)cn2C1CC1 [Danofloxacin]
minimum inhibitory concentration [µg/mL]
Settings	Enterococcus spp.	Mannheimia haemolytica
isolate (source animal id): 2	0.25 (≈ 0.7 µM)	–
isolate (source animal id): 8	–	0.5 (≈ 1.4 µM)
isolate (source animal id): 13	–	0.5 (≈ 1.4 µM)
isolate (source animal id): 18	–	0.5 (≈ 1.4 µM)
isolate (source animal id): 21	–	0.5 (≈ 1.4 µM)
isolate (source animal id): 25	–	0.5 (≈ 1.4 µM)
isolate (source animal id): 27	–	0.25 (≈ 0.7 µM)
isolate (source animal id): 28	–	> 1
isolate (source animal id): 30	–	0.5 (≈ 1.4 µM)
isolate (source animal id): 31	–	> 1
isolate (source animal id): 32	–	0.25 (≈ 0.7 µM)
isolate (source animal id): 34	–	0.5 (≈ 1.4 µM)
isolate (source animal id): 35	> 1	–
isolate (source animal id): 36	–	0.5 (≈ 1.4 µM)
isolate (source animal id): 37	–	0.5 (≈ 1.4 µM)
isolate (source animal id): 40	–	0.5 (≈ 1.4 µM)
isolate (source animal id): 41	–	0.5 (≈ 1.4 µM)
isolate (source animal id): 42	1 (≈ 2.8 µM)	–
isolate (source animal id): 43	–	0.5 (≈ 1.4 µM)
isolate (source animal id): 44	1 (≈ 2.8 µM)	–
isolate (source animal id): 46	–	0.5 (≈ 1.4 µM)
isolate (source animal id): 49	–	0.5 (≈ 1.4 µM)
isolate (source animal id): 50	–	0.5 (≈ 1.4 µM)
isolate (source animal id): 51	–	0.5 (≈ 1.4 µM)
isolate (source animal id): 52	–	0.5 (≈ 1.4 µM)
isolate (source animal id): 53	–	0.5 (≈ 1.4 µM)
isolate (source animal id): 55	–	0.5 (≈ 1.4 µM)
isolate (source animal id): 56	–	0.5 (≈ 1.4 µM)
isolate (source animal id): 57	–	> 1
isolate (source animal id): 79	1 (≈ 2.8 µM)	–
isolate (source animal id): 88	0.25 (≈ 0.7 µM)	–
isolate (source animal id): 91	0.25 (≈ 0.7 µM)	–
isolate (source animal id): 92	1 (≈ 2.8 µM)	–
isolate (source animal id): 100	–	> 1
isolate (source animal id): 103	–	0.5 (≈ 1.4 µM)
isolate (source animal id): 107	–	0.5 (≈ 1.4 µM)
isolate (source animal id): 108	–	0.5 (≈ 1.4 µM)
isolate (source animal id): 111	0.25 (≈ 0.7 µM)	–
isolate (source animal id): 112	–	0.5 (≈ 1.4 µM)
isolate (source animal id): 113	–	> 1
isolate (source animal id): 121	–	0.5 (≈ 1.4 µM)
isolate (source animal id): 122	1 (≈ 2.8 µM)	0.5 (≈ 1.4 µM)
isolate (source animal id): 123	0.5 (≈ 1.4 µM)	> 1
isolate (source animal id): 126	–	> 1
isolate (source animal id): 133	1 (≈ 2.8 µM)	> 1
isolate (source animal id): 135	–	> 1
isolate (source animal id): 138	–	> 1
isolate (source animal id): 141	–	> 1
isolate (source animal id): 142	–	> 1
isolate (source animal id): 145	–	> 1
isolate (source animal id): 149	–	≤ 0.12
isolate (source animal id): 151	–	≤ 0.12
isolate (source animal id): 152	–	> 1
isolate (source animal id): 154	–	≤ 0.12
isolate (source animal id): 158	1 (≈ 2.8 µM)	–
isolate (source animal id): 159	–	> 1
isolate (source animal id): 162	–	> 1
isolate (source animal id): 168	0.5 (≈ 1.4 µM)	–
isolate (source animal id): 169	0.5 (≈ 1.4 µM)	–
isolate (source animal id): 170	–	≤ 0.12
isolate (source animal id): 171	0.5 (≈ 1.4 µM)	≤ 0.12
isolate (source animal id): 172	–	≤ 0.12
isolate (source animal id): 173	–	≤ 0.12
isolate (source animal id): 175	> 1	–
isolate (source animal id): 177	> 1	–
isolate (source animal id): 179	–	≤ 0.12
isolate (source animal id): 180	–	≤ 0.12
isolate (source animal id): 181	0.5 (≈ 1.4 µM)	–
isolate (source animal id): 182	1 (≈ 2.8 µM)	–
isolate (source animal id): 183	1 (≈ 2.8 µM)	≤ 0.12
isolate (source animal id): 186	–	≤ 0.12
isolate (source animal id): 187	0.5 (≈ 1.4 µM)	≤ 0.12
isolate (source animal id): 188	–	≤ 0.12
isolate (source animal id): 190	0.5 (≈ 1.4 µM)	≤ 0.12
isolate (source animal id): 191	–	≤ 0.12
isolate (source animal id): 192	–	≤ 0.12
isolate (source animal id): 194	0.5 (≈ 1.4 µM)	–
isolate (source animal id): 195	0.5 (≈ 1.4 µM)	–
isolate (source animal id): 197	0.5 (≈ 1.4 µM)	–
isolate (source animal id): 201	–	≤ 0.12
isolate (source animal id): 202	–	≤ 0.12
isolate (source animal id): 209	–	≤ 0.12
isolate (source animal id): 211	1 (≈ 2.8 µM)	≤ 0.12
isolate (source animal id): 214	> 1	–
isolate (source animal id): 220	–	≤ 0.12
isolate (source animal id): 221	–	≤ 0.12
isolate (source animal id): 222	0.5 (≈ 1.4 µM)	–
isolate (source animal id): 223	0.5 (≈ 1.4 µM)	≤ 0.12
isolate (source animal id): 228	0.5 (≈ 1.4 µM)	–
isolate (source animal id): 230	0.5 (≈ 1.4 µM)	–
isolate (source animal id): 233	–	> 1
isolate (source animal id): 235	0.5 (≈ 1.4 µM)	–
isolate (source animal id): 236	> 1	–
isolate (source animal id): 237	–	> 1
isolate (source animal id): 239	> 1	–
isolate (source animal id): 241	0.5 (≈ 1.4 µM)	> 1
isolate (source animal id): 244	0.5 (≈ 1.4 µM)	–
isolate (source animal id): 246	0.5 (≈ 1.4 µM)	–
isolate (source animal id): 247	0.5 (≈ 1.4 µM)	–
isolate (source animal id): 250	0.25 (≈ 0.7 µM)	–
isolate (source animal id): 252	> 1	0.25 (≈ 0.7 µM)
isolate (source animal id): 253	–	0.5 (≈ 1.4 µM)
isolate (source animal id): 259	–	> 1
isolate (source animal id): 260	–	0.5 (≈ 1.4 µM)
isolate (source animal id): 262	–	> 1
isolate (source animal id): 268	0.25 (≈ 0.7 µM)	–
isolate (source animal id): 282	1 (≈ 2.8 µM)	> 1
isolate (source animal id): 285	1 (≈ 2.8 µM)	–
isolate (source animal id): 287	–	0.5 (≈ 1.4 µM)
isolate (source animal id): 288	–	≤ 0.12
isolate (source animal id): 289	0.5 (≈ 1.4 µM)	–
isolate (source animal id): 290	0.5 (≈ 1.4 µM)	–
isolate (source animal id): 291	–	≤ 0.12
isolate (source animal id): 293	–	0.5 (≈ 1.4 µM)
isolate (source animal id): 296	0.5 (≈ 1.4 µM)	–
isolate (source animal id): 298	0.5 (≈ 1.4 µM)	0.5 (≈ 1.4 µM)
isolate (source animal id): 299	–	0.5 (≈ 1.4 µM)
isolate (source animal id): 300	–	≤ 0.12
isolate (source animal id): 301	0.5 (≈ 1.4 µM)	–
isolate (source animal id): 302	–	0.5 (≈ 1.4 µM)
isolate (source animal id): 304	–	0.5 (≈ 1.4 µM)
isolate (source animal id): 306	–	≤ 0.12
isolate (source animal id): 308	–	≤ 0.12
isolate (source animal id): 309	–	≤ 0.12
isolate (source animal id): 310	> 1	–
isolate (source animal id): 313	–	0.5 (≈ 1.4 µM)
isolate (source animal id): 318	–	0.25 (≈ 0.7 µM)
isolate (source animal id): 320	0.5 (≈ 1.4 µM)	≤ 0.12
isolate (source animal id): 321	–	0.5 (≈ 1.4 µM)
isolate (source animal id): 323	–	0.5 (≈ 1.4 µM)
isolate (source animal id): 324	–	0.5 (≈ 1.4 µM)
isolate (source animal id): 326	–	0.5 (≈ 1.4 µM)
isolate (source animal id): 328	–	0.5 (≈ 1.4 µM)
isolate (source animal id): 329	–	0.5 (≈ 1.4 µM)
isolate (source animal id): 331	1 (≈ 2.8 µM)	–
isolate (source animal id): 333	0.5 (≈ 1.4 µM)	0.5 (≈ 1.4 µM)
isolate (source animal id): 335	–	0.5 (≈ 1.4 µM)
isolate (source animal id): 338	–	0.5 (≈ 1.4 µM)
isolate (source animal id): 341	> 1	–
